Measured values as given in PubChem BioAssay (NCI).
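At the GI50, growth is halved. TGI marks complete inhibition of growth.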

Legend:
Experiment in all cases: DTP human tumour cell line panel, 384-well format
[1] = test system: 786-0 renal
[2] = test system: A498 renal
[3] = test system: A549 NSCLC
[4] = test system: ACHN renal
[5] = test system: BT-549 breast
[6] = test system: CCRF-CEM leukemia
[7] = test system: COLO 205 colon
[8] = test system: EKVX NSCLC
[9] = test system: HCC-2998 colon
[10] = test system: HCT-116 colon
[11] = test system: HCT-15 colon
[12] = test system: HOP-62 NSCLC
[13] = test system: HOP-92 NSCLC
[14] = test system: HS 578T breast
[15] = test system: K-562 leukemia
[16] = test system: KM12 colon
[17] = test system: LOX IMVI melanoma
[18] = test system: M14 melanoma
[19] = test system: MCF7 breast
[20] = test system: MDA-MB-231 breast
[21] = test system: MDA-MB-468 breast
[22] = test system: NCI-H226 lung
[23] = test system: NCI-H460 NSCLC
[24] = test system: NCI-H522 lung
[25] = test system: NCI/ADR-RES ovarian
[26] = test system: OVCAR-3 ovarian
[27] = test system: OVCAR-4 ovarian
[28] = test system: OVCAR-5 ovarian
[29] = test system: OVCAR-8 ovarian
[30] = test system: PC-3 prostate
[31] = test system: RPMI-8226 leukemia
[32] = test system: RXF 393 renal
[33] = test system: SF-268 CNS
[34] = test system: SF-539 CNS
[35] = test system: SK-MEL-2 melanoma
[36] = test system: SK-MEL-5 melanoma
[37] = test system: SK-OV-3 ovarian
[38] = test system: SN12C renal
[39] = test system: SNB-19 CNS
[40] = test system: SNB-75 CNS
[41] = test system: SR leukemia
[42] = test system: SW-620 colon
[43] = test system: T-47D breast
[44] = test system: TK-10 renal
[45] = test system: UACC-257 melanoma
[46] = test system: UACC-62 melanoma
[47] = test system: UO-31 renal

Cc1cc(Nc2ncc(Cl)c(Nc3ccccc3S(=O)(=O)C(C)C)n2)c(OC(C)C)cc1C1CCNCC1
GI50 [1]: 1260 nM | TGI [1]: 2520 nM | GI50 [2]: 1620 nM | TGI [2]: 2990 nM | GI50 [3]: 1400 nM | TGI [3]: 2730 nM | GI50 [4]: 1770 nM | TGI [4]: 3170 nM | GI50 [5]: 1880 nM | TGI [5]: 3300 nM | GI50 [6]: 1100 nM | TGI [6]: 2430 nM | GI50 [7]: 663 nM | TGI [7]: 1900 nM | GI50 [8]: 1290 nM | TGI [8]: 2570 nM | GI50 [9]: 202 nM | TGI [9]: 552 nM | GI50 [10]: 826 nM | TGI [10]: 2070 nM | GI50 [11]: 648 nM | TGI [11]: 1760 nM | GI50 [12]: 1710 nM | TGI [12]: 3100 nM | GI50 [13]: 1210 nM | TGI [13]: 2450 nM | GI50 [14]: 1640 nM | TGI [14]: 3000 nM | GI50 [15]: 978 nM | TGI [15]: 2150 nM | GI50 [16]: 1450 nM | TGI [16]: 2780 nM | GI50 [17]: 1280 nM | TGI [17]: 2560 nM | GI50 [18]: 1270 nM | TGI [18]: 2550 nM | GI50 [19]: 297 nM | TGI [19]: 1300 nM | GI50 [20]: 1480 nM | TGI [20]: 2810 nM | GI50 [21]: 1100 nM | TGI [21]: 2340 nM | GI50 [22]: 929 nM | TGI [22]: 2240 nM | GI50 [23]: 1080 nM | TGI [23]: 2370 nM | GI50 [24]: 1760 nM | TGI [24]: 3150 nM | GI50 [25]: 1540 nM | TGI [25]: 2890 nM | GI50 [26]: 1590 nM | TGI [26]: 2960 nM | GI50 [27]: 1990 nM | TGI [27]: 3420 nM | GI50 [28]: 1510 nM | TGI [28]: 2850 nM | GI50 [29]: 1550 nM | TGI [29]: 2900 nM | GI50 [30]: 1390 nM | TGI [30]: 2710 nM | GI50 [31]: 720 nM | TGI [31]: 1980 nM | GI50 [32]: 1900 nM | TGI [32]: 3310 nM | GI50 [33]: 1700 nM | TGI [33]: 3080 nM | GI50 [34]: 1870 nM | TGI [34]: 3290 nM | GI50 [35]: 1020 nM | TGI [35]: 2190 nM | GI50 [36]: 668 nM | TGI [36]: 1280 nM | GI50 [37]: 1750 nM | TGI [37]: 3160 nM | GI50 [38]: 1750 nM | TGI [38]: 3140 nM | GI50 [39]: 1830 nM | TGI [39]: 3240 nM | GI50 [40]: 1860 nM | TGI [40]: 3270 nM | GI50 [41]: 13.9 nM | TGI [41]: 26.1 nM | GI50 [42]: 1060 nM | TGI [42]: 2330 nM | GI50 [43]: 1400 nM | TGI [43]: 2710 nM | GI50 [44]: 1570 nM | TGI [44]: 2920 nM | GI50 [45]: 777 nM | TGI [45]: 1530 nM | GI50 [46]: 1040 nM | TGI [46]: 2320 nM | GI50 [47]: 1690 nM | TGI [47]: 3070 nM
